{"source": "patent US6737383B1", "about": "“Herbicidal oxadiazolidines” (priority 1999, dated 2004)", "key": {"[1]": {"test_system": "soybean", "assay": "Test B pre/postemergence soybean", "format": "in vivo, Glycine max", "summary_of_the_method": "(§1)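 Test chemicals in a non-phytotoxic solvent mixture with surfactant were sprayed preemergence onto planted seeds and postemergence onto plants 2 to 18 cm tall (1- to 4-leaf stage). After twelve to sixteen days in a greenhouse, injury was visually rated against untreated controls from 0 (no effect) to 10 (complete control).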"}, "[2]": {"test_system": "wild oat", "assay": "Test B pre/postemergence wild oat", "format": "in vivo, Avena fatua", "summary_of_the_method": "as §1"}, "[3]": {"test_system": "surinam grass", "assay": "Test B pre/postemergence surinam grass", "format": "in vivo, Brachiaria decumbens", "summary_of_the_method": "as §1"}, "[4]": {"test_system": "rape", "assay": "Test B pre/postemergence rape", "format": "in vivo, Brassica napus", "summary_of_the_method": "as §1"}, "[5]": {"test_system": "bedstraw", "assay": "Test B pre/postemergence bedstraw", "format": "in vivo, Galium aparine", "conditions": "Preemergence; for Bedstraw plant response rating: scale 0 to 10, 0 is no effect, 10 is complete control", "summary_of_the_method": "as §1"}, "[6]": {"test_system": "cocklebur", "assay": "Test B pre/postemergence cocklebur", "format": "in vivo, Xanthium strumarium", "summary_of_the_method": "as §1"}, "[7]": {"test_system": "pigweed", "assay": "Test B pre/postemergence pigweed", "format": "in vivo, Amaranthus retroflexus", "summary_of_the_method": "as §1"}, "[8]": {"test_system": "morningglory", "assay": "Test B pre/postemergence morningglory", "format": "in vivo, Ipomoea hederacea", "summary_of_the_method": "as §1"}, "[9]": {"test_system": "velvetleaf", "assay": "Test B pre/postemergence velvetleaf", "format": "in vivo, Abutilon theophrasti", "summary_of_the_method": "as §1"}, "[10]": {"test_system": "corn", "assay": "Test B pre/postemergence corn", "format": "in vivo, Zea mays", "summary_of_the_method": "as §1"}, "[11]": {"test_system": "crabgrass", "assay": "Test B pre/postemergence crabgrass", "format": "in vivo, Digitaria sanguinalis", "summary_of_the_method": "as §1"}, "[12]": {"test_system": "blackgrass", "assay": "Test B pre/postemergence blackgrass", "format": "in vivo, Alopecurus myosuroides", "summary_of_the_method": "as §1"}, "[13]": {"test_system": "giant foxtail", "assay": "Test B pre/postemergence giant foxtail", "format": "in vivo, Setaria faberii", "summary_of_the_method": "as §1"}, "[14]": {"test_system": "purple nutsedge", "assay": "Test B pre/postemergence purple nutsedge", "format": "in vivo, Cyperus rotundus", "summary_of_the_method": "as §1"}, "[15]": {"test_system": "sugar beet", "assay": "Test B pre/postemergence sugar beet", "format": "in vivo, Beta vulgaris", "summary_of_the_method": "as §1"}, "[16]": {"test_system": "wheat", "assay": "Test B pre/postemergence wheat", "format": "in vivo, Triticum aestivum", "summary_of_the_method": "as §1"}, "[17]": {"conditions": "Postemergence, Rate 62 g/ha, scale of 0 to 10, 0 is no effect, 10 is complete control"}, "[18]": {"conditions": "Postemergence, Rate 125 g/ha, scale 0 to 10, 0 is no effect, 10 is complete control"}, "[19]": {"conditions": "Postemergence, Rate 500 g/ha, scale 0 to 10, 0 is no effect, 10 is complete control"}, "[20]": {"conditions": "Preemergence, Rate 62 g/ha, scale of 0 to 10 where 0 is no effect and 10 is complete control"}, "[21]": {"conditions": "Preemergence, Rate 125 g/ha, scale 0 to 10, 0 is no effect, 10 is complete control"}, "[22]": {"conditions": "Preemergence, Rate 500 g/ha, scale of 0 to 10 where 0 is no effect and 10 is complete control"}, "[23]": {"conditions": "Preemergence, Rate 250 g/ha, scale 0 to 10, 0 is no effect, 10 is complete control"}, "[24]": {"conditions": "Postemergence, Rate 250 g/ha, scale 0 to 10"}}, "data": [{"smiles": "CC(Cl)=CCn1c(=O)on(C(=O)N(c2ccc(F)cc2F)C(C)C)c1=O", "note": "[Compound 514]", "values": [{"measurement": "Soybean plant response rating", "setting": "[1]; [17]", "value": 6}, {"measurement": "Soybean plant response rating", "setting": "[1]; [18]", "value": 7}, {"measurement": "Plant response rating, Soybean", "setting": "[1]; [19]", "value": 7}, {"measurement": "Plant response rating, Soybean", "setting": "[1]; [20]", "value": 0}, {"measurement": "Soybean plant response rating", "setting": "[1]; [21]", "value": 0}, {"measurement": "Soybean plant response rating", "setting": "[1]; [22]", "value": 0}, {"measurement": "Wild oats plant response rating", "setting": "[2]; [17]", "value": 0}, {"measurement": "Wild oats plant response rating", "setting": "[2]; [18]", "value": 0}, {"measurement": "Plant response rating, Wild oats", "setting": "[2]; [19]", "value": 3}, {"measurement": "Plant response rating, Wild oats", "setting": "[2]; [20]", "value": 3}, {"measurement": "Wild oats plant response rating", "setting": "[2]; [21]", "value": 4}, {"measurement": "Wild oats plant response rating", "setting": "[2]; [22]", "value": 6}, {"measurement": "B. signalgrass plant response rating", "setting": "[3]; [17]", "value": 0}, {"measurement": "B. signalgrass plant response rating", "setting": "[3]; [18]", "value": 0}, {"measurement": "B. signalgrass plant response rating", "setting": "[3]; Postemergence, Rate 250 g/ha, scale 0 to 10, 0 no effect, 10 complete control", "value": 3}, {"measurement": "Plant response rating, B. signalgrass", "setting": "[3]; [19]", "value": 5}, {"measurement": "Plant response rating, B. signalgrass", "setting": "[3]; [20]", "value": 6}, {"measurement": "B. signalgrass plant response rating", "setting": "[3]; [21]", "value": 6}, {"measurement": "B. signalgrass plant response rating", "setting": "[3]; [23]", "value": 8}, {"measurement": "B. signalgrass plant response rating", "setting": "[3]; Preemergence, Rate 500 g/ha, scale 0 to 10, 0 is no effect, 10 is complete control", "value": 10}, {"measurement": "Rape plant response rating", "setting": "[4]; [17]", "value": 6}, {"measurement": "Rape plant response rating", "setting": "[4]; [18]", "value": 6}, {"measurement": "Plant response rating, Rape", "setting": "[4]; [19]", "value": 8}, {"measurement": "Plant response rating, Rape", "setting": "[4]; [20]", "value": 0}, {"measurement": "Rape plant response rating", "setting": "[4]; [21]", "value": 0}, {"measurement": "Rape plant response rating", "setting": "[4]; [22]", "value": 8}, {"measurement": "Plant response rating, Bedstraw", "setting": "[5]; Rate 62 g/ha, scale of 0 to 10 where 0 is no effect and 10 is complete control", "value": 0}, {"measurement": "Bedstraw plant response rating", "setting": "[5]; Rate 250 g/ha", "value": 0}, {"measurement": "Bedstraw plant response rating", "setting": "[5]; Rate 500 g/ha", "value": 0}, {"measurement": "Cocklebur plant response rating", "setting": "[6]; [17]", "value": 0}, {"measurement": "Cocklebur plant response rating", "setting": "[6]; [18]", "value": 1}, {"measurement": "Cocklebur plant response rating", "setting": "[6]; [24]", "value": 3}, {"measurement": "Plant response rating, Cocklebur", "setting": "[6]; [19]", "value": 5}, {"measurement": "Plant response rating, Cocklebur", "setting": "[6]; [20]", "value": 0}, {"measurement": "Cocklebur plant response rating", "setting": "[6]; [21]", "value": 0}, {"measurement": "Cocklebur plant response rating", "setting": "[6]; [23]", "value": 0}, {"measurement": "Cocklebur plant response rating", "setting": "[6]; [22]", "value": 0}, {"measurement": "Redroot pigweed plant response rating", "setting": "[7]; [17]", "value": 0}, {"measurement": "Redroot pigweed plant response rating", "setting": "[7]; [18]", "value": 2}, {"measurement": "Plant response rating, Redroot pigweed", "setting": "[7]; [19]", "value": 8}, {"measurement": "Plant response rating, Redroot pigweed", "setting": "[7]; [20]", "value": 7}, {"measurement": "Redroot pigweed plant response rating", "setting": "[7]; [21]", "value": 8}, {"measurement": "Redroot pigweed plant response rating", "setting": "[7]; [22]", "value": 10}, {"measurement": "Morningglory plant response rating", "setting": "[8]; [17]", "value": 2}, {"measurement": "Morningglory plant response rating", "setting": "[8]; [18]", "value": 7}, {"measurement": "Plant response rating, Morningglory", "setting": "[8]; [19]", "value": 7}, {"measurement": "Plant response rating, Morningglory", "setting": "[8]; [20]", "value": 0}, {"measurement": "Morningglory plant response rating", "setting": "[8]; [21]", "value": 0}, {"measurement": "Morningglory plant response rating", "setting": "[8]; [22]", "value": 0}, {"measurement": "Velvetleaf plant response rating", "setting": "[9]; [17]", "value": 2}, {"measurement": "Velvetleaf plant response rating", "setting": "[9]; [18]", "value": 2}, {"measurement": "Plant response rating, Velvetleaf", "setting": "[9]; [19]", "value": 5}, {"measurement": "Plant response rating, Velvetleaf", "setting": "[9]; [20]", "value": 0}, {"measurement": "Velvetleaf plant response rating", "setting": "[9]; [21]", "value": 0}, {"measurement": "Velvetleaf plant response rating", "setting": "[9]; [22]", "value": 5}, {"measurement": "Corn plant response rating", "setting": "[10]; [17]", "value": 0}, {"measurement": "Corn plant response rating", "setting": "[10]; [18]", "value": 0}, {"measurement": "Corn plant response rating", "setting": "[10]; [24]", "value": 0}, {"measurement": "Plant response rating, Corn", "setting": "[10]; [19]", "value": 5}, {"measurement": "Plant response rating, Corn", "setting": "[10]; [20]", "value": 0}, {"measurement": "Corn plant response rating", "setting": "[10]; [21]", "value": 0}, {"measurement": "Corn plant response rating", "setting": "[10]; [22]", "value": 5}, {"measurement": "Crabgrass plant response rating", "setting": "[11]; [17]", "value": 7}, {"measurement": "Crabgrass plant response rating", "setting": "[11]; [18]", "value": 9}, {"measurement": "Crabgrass plant response rating", "setting": "[11]; [24]", "value": 9}, {"measurement": "Plant response rating, Crabgrass", "setting": "[11]; [19]", "value": 10}, {"measurement": "Plant response rating, Crabgrass", "setting": "[11]; [20]", "value": 5}, {"measurement": "Crabgrass plant response rating", "setting": "[11]; [21]", "value": 7}, {"measurement": "Crabgrass plant response rating", "setting": "[11]; [22]", "value": 10}, {"measurement": "Blackgrass plant response rating", "setting": "[12]; [17]", "value": 0}, {"measurement": "Blackgrass plant response rating", "setting": "[12]; [18]", "value": 3}, {"measurement": "Blackgrass plant response rating", "setting": "[12]; [24]", "value": 5}, {"measurement": "Plant response rating, Blackgrass", "setting": "[12]; [19]", "value": 5}, {"measurement": "Plant response rating, Blackgrass", "setting": "[12]; [20]", "value": 2}, {"measurement": "Blackgrass plant response rating", "setting": "[12]; [21]", "value": 2}, {"measurement": "Blackgrass plant response rating", "setting": "[12]; [23]", "value": 5}, {"measurement": "Blackgrass plant response rating", "setting": "[12]; [22]", "value": 7}, {"measurement": "Giant foxtail plant response rating", "setting": "[13]; [17]", "value": 6}, {"measurement": "Giant foxtail plant response rating", "setting": "[13]; [18]", "value": 9}, {"measurement": "Plant response rating, Giant foxtail", "setting": "[13]; [19]", "value": 9}, {"measurement": "Plant response rating, Giant foxtail", "setting": "[13]; [20]", "value": 9}, {"measurement": "Giant foxtail plant response rating", "setting": "[13]; [21]", "value": 10}, {"measurement": "Giant foxtail plant response rating", "setting": "[13]; [22]", "value": 10}, {"measurement": "Nutsedge plant response rating", "setting": "[14]; [17]", "value": 0}, {"measurement": "Nutsedge plant response rating", "setting": "[14]; [18]", "value": 0}, {"measurement": "Plant response rating, Nutsedge", "setting": "[14]; [19]", "value": 0}, {"measurement": "Plant response rating, Nutsedge", "setting": "[14]; [20]", "value": 0}, {"measurement": "Nutsedge plant response rating", "setting": "[14]; [22]", "value": 0}, {"measurement": "Sugarbeets plant response rating", "setting": "[15]; [17]", "value": 3}, {"measurement": "Sugarbeets plant response rating", "setting": "[15]; [18]", "value": 3}, {"measurement": "Plant response rating, Sugarbeets", "setting": "[15]; [19]", "value": 5}, {"measurement": "Plant response rating, Sugarbeets", "setting": "[15]; [20]", "value": 0}, {"measurement": "Sugarbeets plant response rating", "setting": "[15]; [21]", "value": 5}, {"measurement": "Sugarbeets plant response rating", "setting": "[15]; [22]", "value": 6}, {"measurement": "Wheat plant response rating", "setting": "[16]; [17]", "value": 0}, {"measurement": "Wheat plant response rating", "setting": "[16]; [18]", "value": 0}, {"measurement": "Plant response rating, Wheat", "setting": "[16]; [19]", "value": 0}, {"measurement": "Plant response rating, Wheat", "setting": "[16]; [20]", "value": 0}, {"measurement": "Wheat plant response rating", "setting": "[16]; [21]", "value": 0}, {"measurement": "Wheat plant response rating", "setting": "[16]; [22]", "value": 4}]}]}
